Laboratory results taken from patent publication US20240018166A1, “SULFONYL UREA NLRP3 INFLAMMASOME INHIBITORS” (Venatorx Pharmaceuticals, Inc., priority 2020, published 2024).

Key:
IL-1β = IL-1β inhibition assay (ELISA/HTRF of culture supernatants); type: cell-based; details: Homo sapiens, PMA-differentiated THP-1 cells, tested 10 μM to 0.003 μM
Experimental: Human monocyte-like THP-1 cells were grown in RPMI media supplemented with 10% FBS (growth media) at 37° C., 5% CO2. Cell cultures were passaged every three days and maintained at a density of 5×10^5 to 1×10^6 cells per mL.
Compounds were prepared as 10 mM stock solutions in 100% DMSO. […] Each 200× dilution was then diluted 20-fold in growth media (step down dilution) to yield a 10× final assay concentration range. All compounds were tested over a final assay concentration range of 10 μM to 0.003 μM.
The level of IL-10 in supernatants from PMA-differentiated THP-1 cells was determined by ELISA using either the R&D Systems Human IL-1 beta/IL-1F2 Quantikine ELISA or the cisbio HTRF human IL 1 beta kit. Manufacturer's protocols were followed without deviation.
Background values were subtracted and resulting values were converted to percentage of vehicle-treated controls. Data was analyzed via GraphPad Prism 7.0 using a non-linear regression (variable slope (four-parameter)) equation.
Table 2 provides IL-10 ELISA EC50 values for example compounds. A indicates EC50>10 μM; B indicates EC50 between 1 and 10 μM (inclusive); C indicates EC50<1 μM.

[1] = MTT cell viability assay, THP-1 cells; type: cell-based; details: human, unstimulated THP-1 cells, read-out: THP-1 Cytotoxicity CC50
Experimental: In order to assess the cytotoxicity of the compounds, an MTT cell viability assay was performed in either unstimulated THP-1 or HepG2 cells as follows. 5×10^4 THP-1 or 5×10^3 HepG2 cells were seeded into each well of a 96-well plate in 90 μL of media. Compounds were added to cells as described for the IL-10 assay and returned to the incubator for an additional 72 hours. Next, 25 μL of MTT solution (5 mg/mL in sterile PBS) was added to each well. Plates were incubated for 3 hours at 37° C., 5% CO2. Next, for THP-1 cells, 100 μl of MTT solubilization solution (40% Dimethylformamide, 2% glacial acetic acid, 16% sodium dodecyl sulfate) was then added to each well and plates were incubated at room temperature in the dark overnight. For HepG2 cells, media was aspirated, 50 μL of DMSO was added and plates were mixed briefly with an orbital plate shaker. Absorbance at 570 nm was measured using a Perkin-Elmer EnVision plate reader.
Absorbance values were converted to percentage of vehicle-treated controls. Data was then analyzed using a non-linear regression (variable slope (four-parameter)) equation in GraphPad Prism 7.0.
Table 2 provides THP-1 cytotoxicity assay CC50 values for example compounds. A indicates CC50>10 μM; B indicates CC50 between 1 and 10 μM (inclusive); C indicates CC50<1 μM. NT, not tested.

| Structure (SMILES) | EC50 (IL-1β) [µM] | CC50 at 72 h [1] [µM] |
| --- | --- | --- |
| CC(C)c1cc(B2OC(C)(C)C(C)(C)O2)ccc1NC(=O)NS(=O)(=O)c1cnn(C(C)C)c1 [Example 18, 1-isopropyl-N-((2-isopropyl-4-(4,4,5,5-tetramethyl-1,3,2-dioxaborolan-2-yl)phenyl)carbamoyl)-1H-pyrazole-4-sulfonamide] | > 10 | > 10 |
| COC(=O)c1ccc(S(=O)(=O)NC(=O)Nc2c3c(cc4c2CCC4)CCC3)cc1B(O)O [Example 35, (5-(N-((1,2,3,5,6,7-hexahydro-s-indacen-4-yl)carbamoyl)sulfamoyl)-2-(methoxycarbonyl)phenyl)boronic acid] | > 10 | > 10 |
| CC(C)n1cc(S(=O)(=O)NC(=O)Nc2cc(B(O)O)ccc2C2CC2)cn1 [Example 21, (4-cyclopropyl-3-(3-((1-isopropyl-1H-pyrazol-4-yl)sulfonyl)ureido)phenyl)boronic acid] | > 10 | 1 to 10 |
| CC(C)n1cc(S(=O)(=O)NC(=O)Nc2cc(B3OC(C)(C)C(C)(C)O3)ccc2C2CC2)cn1 [Example 20, N-((2-cyclopropyl-5-(4,4,5,5-tetramethyl-1,3,2-dioxaborolan-2-yl)phenyl)carbamoyl)-1-isopropyl-1H-pyrazole-4-sulfonamide] | > 10 | > 10 |
| COc1ccc(B2OC(C)(C)C(C)(C)O2)cc1S(=O)(=O)NC(=O)Nc1c(C(C)C)cccc1C(C)C [Example 9, N-((2,6-diisopropylphenyl)carbamoyl)-2-methoxy-5-(4,4,5,5-tetramethyl-1,3,2-dioxaborolan-2-yl)benzenesulfonamide] | > 10 | > 10 |
| COc1ccc(B(O)O)cc1S(=O)(=O)NC(=O)Nc1c(C(C)C)cccc1C(C)C [Example 8, (3-(N-((2,6-diisopropylphenyl)carbamoyl)sulfamoyl)-4-methoxyphenyl)boronic acid] | > 10 | > 10 |
| CC1(C)OB(O)c2cc(S(=O)(=O)NC(=O)Nc3c4c(cc5c3CCC5)CCC4)ccc21 [Example 47, N-((1,2,3,5,6,7-hexahydro-s-indacen-4-yl)carbamoyl)-1-hydroxy-3,3-dimethyl-1,3-dihydrobenzo[c][1,2]oxaborole-6-sulfonamide] | 1 to 10 | > 10 |
| CC1(C)[C@@H]2C[C@H]3OB(CCCc4ccc(S(=O)(=O)NC(=O)Nc5c6c(cc7c5CCC7)CCC6)cc4O)O[C@@]3(C)[C@H]1C2 [Example 48, N-((1,2,3,5,6,7-hexahydro-s-indacen-4-yl)carbamoyl)-3-hydroxy-4-(3-((3aS,4S,6S,7aR)-3a,5,5-trimethylhexahydro-4,6-methanobenzo[d][1,3,2]dioxaborol-2-yl)propyl)benzenesulfonamide] | 1 to 10 | > 10 |
| COc1ccc(S(=O)(=O)NC(=O)Nc2c3c(cc4c2CCC4)CCC3)cc1CCCB1OC(C)(C)C(C)(C)O1 [Example 45, N-((1,2,3,5,6,7-hexahydro-s-indacen-4-yl)carbamoyl)-4-methoxy-3-(3-(4,4,5,5-tetramethyl-1,3,2-dioxaborolan-2-yl)propyl)benzenesulfonamide] | 1 to 10 | > 10 |
| COc1cc(-c2ccc3c(c2NC(=O)NS(=O)(=O)c2ccc4c(c2)COB4O)CCC3)ccn1 [Example 51, 1-hydroxy-N-((5-(2-methoxypyridin-4-yl)-2,3-dihydro-1H-inden-4-yl)carbamoyl)-1,3-dihydrobenzo[c][1,2]oxaborole-5-sulfonamide] | 1 to 10 | > 10 |
| O=C(Nc1c2c(cc3c1CCC3)CCC2)NS(=O)(=O)c1cccc(B(O)O)c1 [Example 1, (3-(N-((1,2,3,5,6,7-hexahydro-s-indacen-4-yl)carbamoyl)sulfamoyl)phenyl)boronic acid] | 1 to 10 | > 10 |

Now from value to compound, other results behind:

| EC50 (IL-1β) [µM] | Structure (SMILES) | CC50 at 72 h [1] [µM] |
| --- | --- | --- |
| 1 to 10 | CC1(C)[C@@H]2CC3OB(c4ccc(S(=O)(=O)NC(=O)Nc5c6c(cc7c5CCC7)CCC6)cc4)O[C@@]3(C)[C@H]1C2 (stereo partly drawn) [Example 14, N-((1,2,3,5,6,7-hexahydro-s-indacen-4-yl)carbamoyl)-4-((3aS,4S,6S)-3a,5,5-trimethylhexahydro-4,6-methanobenzo[d][1,3,2]dioxaborol-2-yl)benzenesulfonamide] | > 10 |
| 1 to 10 | CC1(C)[C@@H]2C[C@H]3OB(CCCc4cc(S(=O)(=O)NC(=O)Nc5c6c(cc7c5CCC7)CCC6)ccc4O)O[C@@]3(C)[C@H]1C2 [Example 49, N-((1,2,3,5,6,7-hexahydro-s-indacen-4-yl)carbamoyl)-4-hydroxy-3-(3-((3aS,4S,6S,7aR)-3a,5,5-trimethylhexahydro-4,6-methanobenzo[d][1,3,2]dioxaborol-2-yl)propyl)benzenesulfonamide] | > 10 |
| 1 to 10 | O=C(Nc1c2c(cc3c1CCC3)CCC2)NS(=O)(=O)c1ccc(B(O)O)cc1 [Example 13, (4-(N-((1,2,3,5,6,7-hexahydro-s-indacen-4-yl)carbamoyl)sulfamoyl)phenyl)boronic acid] | > 10 |
| 1 to 10 | Cc1ccc(S(=O)(=O)NC(=O)Nc2c(C(C)C)cccc2C(C)C)cc1B(O)O [Example 7, (5-(N-((2,6-diisopropylphenyl)carbamoyl)sulfamoyl)-2-methylphenyl)boronic acid] | > 10 |
| < 1 | CC(C)(O)c1coc(S(=O)(=O)NC(=O)Nc2c3c(cc4c2CCC4)CCC3)c1 [MCC-950, reference compound] | > 10 |
| 1 to 10 | CC(C)c1cc(B(O)O)cc(C(C)C)c1NC(=O)NS(=O)(=O)c1cnn(C(C)C)c1 [Example 24, (3,5-diisopropyl-4-(3-((1-isopropyl-1H-pyrazol-4-yl)sulfonyl)ureido)phenyl)boronic acid] | > 10 |
| < 1 | CC1(C)OB(CCCn2ccc(S(=O)(=O)NC(=O)Nc3c4c(cc5c3CCC5)CCC4)n2)OC1(C)C [Example 59, N-((1,2,3,5,6,7-hexahydro-s-indacen-4-yl)carbamoyl)-1-(3-(4,4,5,5-tetramethyl-1,3,2-dioxaborolan-2-yl)propyl)-1H-pyrazole-3-sulfonamide] | > 10 |
| 1 to 10 | O=C(Nc1c2c(cc3c1CCC3)CCC2)NS(=O)(=O)c1ccc2c(c1)OB(O)CC2 [Example 41, N-((1,2,3,5,6,7-hexahydro-s-indacen-4-yl)carbamoyl)-2-hydroxy-3,4-dihydro-2H-benzo[e][1,2]oxaborinine-7-sulfonamide] | > 10 |
| 1 to 10 | Cc1ccc(S(=O)(=O)NC(=O)Nc2c(C(C)C)cccc2C(C)C)cc1B1OC(C)(C)C(C)(C)O1 [Example 6, N-((2,6-diisopropylphenyl)carbamoyl)-4-methyl-3-(4,4,5,5-tetramethyl-1,3,2-dioxaborolan-2-yl)benzenesulfonamide] | > 10 |
| 1 to 10 | O=C(Nc1c2c(cc3c1CCC3)CCC2)NS(=O)(=O)c1cc(F)cc2c1B(O)OC2 [Example 34, 5-fluoro-N-((1,2,3,5,6,7-hexahydro-s-indacen-4-yl)carbamoyl)-1-hydroxy-1,3-dihydrobenzo[c][1,2]oxaborole-7-sulfonamide] | > 10 |
| 1 to 10 | O=C(Nc1c2c(cc3c1CCC3)CCC2)NS(=O)(=O)c1ccc2c(c1)B(O)OC2 [Example 17, N-((1,2,3,5,6,7-hexahydro-s-indacen-4-yl)carbamoyl)-1-hydroxy-1,3-dihydrobenzo[c][1,2]oxaborole-6-sulfonamide] | > 10 |
| 1 to 10 | CC1(C)OB(CCCc2cccc(S(=O)(=O)NC(=O)Nc3c4c(cc5c3CCC5)CCC4)c2)OC1(C)C [Example 46, N-((1,2,3,5,6,7-hexahydro-s-indacen-4-yl)carbamoyl)-3-(3-(4,4,5,5-tetramethyl-1,3,2-dioxaborolan-2-yl)propyl)benzenesulfonamide] | > 10 |
| 1 to 10 | O=C(Nc1c2c(cc3c1CCC3)CCC2)NS(=O)(=O)c1ccc(O)c(CB(O)O)c1 [Example 38, (5-(N-((1,2,3,5,6,7-hexahydro-s-indacen-4-yl)carbamoyl)sulfamoyl)-2-hydroxybenzyl)boronic acid] | > 10 |
